Results reported in patent publication EP0067666A1, “Salts of antimicrobial naphthyridine and quinoline compounds and their production” (priority 1981, dated 1982).
Values after ≈ are worked out from the molar mass of the structure shown.

What was measured:
Proteus retgeri M 1771 = test: Antibacterial activity, MIC; type: cell-based
Strep. faecalis MGH-2 = test: Antibacterial activity, MIC; type: cell-based
Entero cloacae MA 2646 = test: Antibacterial activity, MIC; type: cell-based
Strep. pneumoniae SV-1 = test: Antibacterial activity, MIC; type: cell-based
Escherichia coli Vogel = test: Acute mouse protection test; type: in vivo; details: single dose given at time of challenge, compound B series
[1] = tested on: Klebsiella pneumoniae MGH-2; test: Acute mouse protection test; type: in vivo; details: subcutaneous, single dose given at time of challenge, compound B series
Klebs. pneumoniae MGH-2 = test: Antibacterial activity, MIC; type: cell-based
[2] = tested on: Staphylococcus aureus UC-76; test: Acute mouse protection test; type: in vivo; details: single dose given at time of challenge, compound B series
Strep. pyogenes C-203 = test: Antibacterial activity, MIC; type: cell-based
Staph. aureus UC-76 = test: Antibacterial activity, MIC; type: cell-based
Pseudo. aeruginosa UI-18 = test: Antibacterial activity, MIC; type: cell-based
Staph. aureus H 228 = test: Antibacterial activity, MIC; type: cell-based
E. coli Vogel = test: Antibacterial activity, MIC; type: cell-based
[3] = Two-way crossover oral trial, drug blood levels by disk agar diffusion microbiological assay; type: in vivo; details: Beagle dogs, single 25 mg/kg (parent compound equivalent) oral dose in hard gelatine capsules; compound B compared with compound D as the glutamate
Method: Drug blood levels were determined by a disk agar diffusion microbiological assay.

[4] = Solubility screening procedure (concentration and pH of filtrate); type: physicochemical
Method: (§1) The amount of Compound A or Compound B calculated for selected concentrations was weighed into volumetric flasks. Equimolar quantities of combining acid, amino acid, or base were added either as solutions or in dry form. Deionized water was added to bring the volume to that desired for the preselected concentrations.. All flasks were sonicated for 15 minutes, allowed to stand at room temperature for 30 minutes, then filtered through a fine frit sintered glass funnel. After the pH of the filtrate was taken, suitable dilutions were made into 0.1N HCl for ultraviolet spectrophotometric assay of concentration. Ten fold dilutions of the original filtrates were made into standard I.V. solutions.

[5] = Solubility of lyophilized and crystalline solids; type: physicochemical; details: CPD B salt
[6] = 10x dilution of soluble forms with standard IV solutions (pH, precipitate); type: physicochemical
Method: as §1

## CCn1cc(C(=O)O)c(=O)c2cc(F)c(N3CCNCC3)nc21 [B Glutamate]
Proteus retgeri M 1771; based on content of compound B
  MIC µg/ml Proteus retgeri M 1771: 0.1 µg/mL (≈ 0.312 µM)
Strep. faecalis MGH-2; based on content of compound B
  MIC µg/ml Strep. faecalis MGH-2: 3.1 µg/mL (≈ 9.68 µM)
Entero cloacae MA 2646; based on content of compound B
  MIC µg/ml Entero cloacae MA 2646: 0.2 µg/mL (≈ 0.624 µM)
Strep. pneumoniae SV-1; based on content of compound B
  MIC µg/ml Strep. pneumoniae SV-1: 3.1 µg/mL (≈ 9.68 µM)
Escherichia coli Vogel; oral
  Single po Dose PD50 (mg/kg) ± 95% Confidence Limits Escherichia coli Vogel: 2.9 ± 1.0 mg/kg
Escherichia coli Vogel; subcutaneous
  Single sc Dose PD50 (mg/kg) ± 95% Confidence Limits Escherichia coli Vogel: 1.6 ± 0.6 mg/kg
[1]
  Single sc Dose PD50 (mg/kg) ± 95% Confidence Limits Klebsiella pneumoniae MGH-2: 1.9 ± 0.9 mg/kg
Klebs. pneumoniae MGH-2; based on content of compound B
  MIC µg/ml Klebs. pneumoniae MGH-2: 0.2 µg/mL (≈ 0.624 µM)
[2]; oral
  Single po Dose PD50 (mg/kg) ± 95% Confidence Limits Staphylococcus aureus UC-76: 12.0 ± 3.0 mg/kg
[2]; subcutaneous
  Single sc Dose PD50 (mg/kg) ± 95% Confidence Limits Staphylococcus aureus UC-76: 2.8 ± 1.0 mg/kg
Strep. pyogenes C-203; based on content of compound B
  MIC µg/ml Strep. pyogenes C-203: 6.3 µg/mL (≈ 19.7 µM)
Staph. aureus UC-76; based on content of compound B
  MIC µg/ml Staph. aureus UC-76: <0.1 µg/mL
Pseudo. aeruginosa UI-18; based on content of compound B
  MIC µg/ml Pseudo. aeruginosa UI-18: 0.2 µg/mL (≈ 0.624 µM)
Staph. aureus H 228; based on content of compound B
  MIC µg/ml Staph. aureus H 228: 1.6 µg/mL (≈ 4.99 µM)
E. coli Vogel; based on content of compound B
  MIC µg/ml E. coli Vogel: <0.1 µg/mL

## CCn1cc(C(=O)O)c(=O)c2cc(F)c(N3CCNCC3)cc21 [A Aspartate]
Proteus retgeri M 1771; based on content of compound A
  MIC µg/ml Proteus retgeri M 1771: <0.1 µg/mL
Strep. faecalis MGH-2; based on content of compound A
  MIC µg/ml Strep. faecalis MGH-2: 1.6 µg/mL (≈ 5.01 µM)
Entero cloacae MA 2646; based on content of compound A
  MIC µg/ml Entero cloacae MA 2646: 0.1 µg/mL (≈ 0.313 µM)
Strep. pneumoniae SV-1; based on content of compound A
  MIC µg/ml Strep. pneumoniae SV-1: 1.6 µg/mL (≈ 5.01 µM)
Klebs. pneumoniae MGH-2; based on content of compound A
  MIC µg/ml Klebs. pneumoniae MGH-2: 0.2 µg/mL (≈ 0.626 µM)
Strep. pyogenes C-203; based on content of compound A
  MIC µg/ml Strep. pyogenes C-203: 0.8 µg/mL (≈ 2.51 µM)
Staph. aureus UC-76; based on content of compound A
  MIC µg/ml Staph. aureus UC-76: <0.1 µg/mL
Pseudo. aeruginosa UI-18; based on content of compound A
  MIC µg/ml Pseudo. aeruginosa UI-18: <0.1 µg/mL
Staph. aureus H 228; based on content of compound A
  MIC µg/ml Staph. aureus H 228: 0.8 µg/mL (≈ 2.51 µM)
E. coli Vogel; based on content of compound A
  MIC µg/ml E. coli Vogel: <0.1 µg/mL

## CCn1cc(C(=O)O)c(=O)c2cc(F)c(N3CCNCC3)cc21 [A Galacturo-nate]
Proteus retgeri M 1771; based on content of compound A
  MIC µg/ml Proteus retgeri M 1771: <0.1 µg/mL
Strep. faecalis MGH-2; based on content of compound A
  MIC µg/ml Strep. faecalis MGH-2: 1.6 µg/mL (≈ 5.01 µM)
Entero cloacae MA 2646; based on content of compound A
  MIC µg/ml Entero cloacae MA 2646: 0.1 µg/mL (≈ 0.313 µM)
Strep. pneumoniae SV-1; based on content of compound A
  MIC µg/ml Strep. pneumoniae SV-1: 1.6 µg/mL (≈ 5.01 µM)
Klebs. pneumoniae MGH-2; based on content of compound A
  MIC µg/ml Klebs. pneumoniae MGH-2: 0.1 µg/mL (≈ 0.313 µM)
Strep. pyogenes C-203; based on content of compound A
  MIC µg/ml Strep. pyogenes C-203: 0.8 µg/mL (≈ 2.51 µM)
Staph. aureus UC-76; based on content of compound A
  MIC µg/ml Staph. aureus UC-76: <0.1 µg/mL
Pseudo. aeruginosa UI-18; based on content of compound A
  MIC µg/ml Pseudo. aeruginosa UI-18: 0.1 µg/mL (≈ 0.313 µM)
Staph. aureus H 228; based on content of compound A
  MIC µg/ml Staph. aureus H 228: 0.8 µg/mL (≈ 2.51 µM)
E. coli Vogel; based on content of compound A
  MIC µg/ml E. coli Vogel: <0.1 µg/mL

## CCn1cc(C(=O)O)c(=O)c2cc(F)c(N3CCNCC3)nc21 [Compound B L-Glutamic, 1-Ethyl-6-fluoro-1,4-dihydro-4-oxo-7-(1-piperazinyl)-1,8-naphthyridine-3-carboxylic acid L-glutamate]
[3]
  drug half-life: no significant difference
  peak blood level: no significant difference

## CCn1cc(C(=O)O)c(=O)c2cc(F)c(N3CCNCC3)nc21 [B Isethionic]
[4]; compound B + equimolar acid, amino acid or base in deionized water, room temperature, filtrate, UV assay
  Conc. of CPD B: 220 mg/mL
[4]; pH of the filtrate, CPD B solutions
  pH of Solution: 1.01
[5]; crystalline solid
  pH of Solution Cryst.: 2.84
[5]; lyophilized solid
  pH of Solution Lyo.: 1.4
[6]; concentrated Cpd B solution (154-221 mg/ml) diluted 10x with 5% Dextrose
  Solution 2 pH dil: 2.35
[6]; concentrated Cpd B solution (154-221 mg/ml) diluted 10x with 5% Dextrose + 0.9% NaCl
  Solution 3 pH dil: 2.14
[6]; concentrated Cpd B solution (154-221 mg/ml) diluted 10x with Lactated Ringer's Solution
  Solution 4 pH dil: 3.95
[6]; concentrated Cpd B solution (155-221 mg/ml) diluted 10x with 0.9% NaCl
  Solution 1 pH dil: 2.08
[6]; concentrated Cpd B solution (155-221 mg/ml) diluted 10x with 0.9% NaCl, precipitate at 4 hr
  Solution 1 ppt 4 hr: no
[6]; concentrated Cpd B solution (155-221 mg/ml) diluted 10x with 0.9% NaCl, precipitate at 24 hr
  Solution 1 ppt 24 hr: yes
[6]; concentrated Cpd B solution diluted 10x with 5% Dextrose + 0.9% NaCl, precipitate at 24 hr
  Solution 3 ppt 24 hr: yes
[6]; concentrated Cpd B solution diluted 10x with 5% Dextrose, precipitate at 24 hr
  Solution 2 ppt 24 hr: no
[6]; concentrated Cpd B solution diluted 10x with Lactated Ringer's Solution, precipitate at 24 hr
  Solution 4 ppt 24 hr: slight
[6]; low-concentration Cpd B solution (26.2-52 mg/ml) diluted 10x with 0.9% NaCl
  Solution 1 pH dil: 3.05
[6]; low-concentration Cpd B solution (26.2-52 mg/ml) diluted 10x with 0.9% NaCl, precipitate at 24 hr
  Solution 1 ppt 24 hr: no
[6]; separate undiluted concentrated Cpd B solution used for Solutions 2-4 only
  pH of Solut.: 1.40
[6]; separate undiluted concentrated solution used for Solutions 2-4 only
  Concen. of Cpd B: 196 mg/mL
[6]; undiluted concentrated Cpd B solution used for the Solution 1 dilution
  pH of Solut.: 1.01
[6]; undiluted concentrated solution (at least 155 mg/ml) used for the Solution 1 dilution (for most salts for all four solutions)
  Concen. of Cpd B: 220 mg/mL
[6]; undiluted low-concentration Cpd B solution (26.2-52 mg/ml)
  pH of Solut.: 2.16
[6]; undiluted low-concentration solution (26.2-52 mg/ml), diluted with Solution 1 only
  Concen. of Cpd B: 48.8 mg/mL
